Reference: ChEMBL document CHEMBL1152441, “Discovery of [18F]N-(2-(diethylamino)ethyl)-6-fluoronicotinamide: a melanoma positron emission tomography imaging radiotracer with high tumor to body contrast ratio and rapid renal clearance” (J Med Chem, 2009)

Tests used:
[1] = Biodistribution in eye of mouse B16F0 cells implanted C57BL/6J mouse assessed per gram of tissue at 0.4 to 5.5 MBq, iv after 0.25 hrs by gamma counter; type: ADME, organism-based; conditions: in vivo
[2] = Biodistribution in tumor of mouse B16F0 cells implanted C57BL/6J mouse assessed per gram of tissue at 0.4 to 5.5 MBq, iv after 6 hrs by gamma counter; type: ADME, organism-based, Neoplasm; conditions: in vivo
[3] = Biodistribution in tumor of mouse B16F0 cells implanted C57BL/6J mouse assessed per gram of tissue at 0.4 to 5.5 MBq, iv after 3 hrs by gamma counter; type: ADME, organism-based, Neoplasm; conditions: in vivo
[4] = Biodistribution in tumor of mouse B16F0 cells implanted C57BL/6J mouse assessed per gram of tissue at 0.4 to 5.5 MBq, iv after 1 hr by gamma counter; type: ADME, organism-based, Neoplasm; conditions: in vivo
[5] = Biodistribution in tumor of mouse B16F0 cells implanted C57BL/6J mouse assessed per gram of tissue at 0.4 to 5.5 MBq, iv after 0.25 hrs by gamma counter; type: ADME, organism-based, Neoplasm; conditions: in vivo
[6] = Lipophilicity, log P at pH 7.5; type: physicochemical; conditions: buffer
[7] = tested on: Bone; test: Biodistribution in bone of mouse B16F0 cells implanted C57BL/6J mouse assessed per gram of tissue at 0.4 to 5.5 MBq, iv after 6 hrs by gamma counter; type: ADME, organism-based, Bone element; conditions: in vivo
[8] = tested on: Bone; test: Biodistribution in bone of mouse B16F0 cells implanted C57BL/6J mouse assessed per gram of tissue at 0.4 to 5.5 MBq, iv after 3 hrs by gamma counter; type: ADME, organism-based, Bone element; conditions: in vivo
[9] = tested on: Bone; test: Biodistribution in bone of mouse B16F0 cells implanted C57BL/6J mouse assessed per gram of tissue at 0.4 to 5.5 MBq, iv after 1 hr by gamma counter; type: ADME, organism-based, Bone element; conditions: in vivo
[10] = tested on: Bone; test: Biodistribution in bone of mouse B16F0 cells implanted C57BL/6J mouse assessed per gram of tissue at 0.4 to 5.5 MBq, iv after 0.25 hrs by gamma counter; type: ADME, organism-based, Bone element; conditions: in vivo
[11] = tested on: Intestine; test: Biodistribution in intestine of mouse B16F0 cells implanted C57BL/6J mouse assessed per gram of tissue at 0.4 to 5.5 MBq, iv after 6 hrs by gamma counter; type: ADME, organism-based; conditions: in vivo
[12] = tested on: Intestine; test: Biodistribution in intestine of mouse B16F0 cells implanted C57BL/6J mouse assessed per gram of tissue at 0.4 to 5.5 MBq, iv after 3 hrs by gamma counter; type: ADME, organism-based; conditions: in vivo
[13] = tested on: Intestine; test: Biodistribution in intestine of mouse B16F0 cells implanted C57BL/6J mouse assessed per gram of tissue at 0.4 to 5.5 MBq, iv after 1 hr by gamma counter; type: ADME, organism-based; conditions: in vivo
[14] = tested on: Intestine; test: Biodistribution in intestine of mouse B16F0 cells implanted C57BL/6J mouse assessed per gram of tissue at 0.4 to 5.5 MBq, iv after 0.25 hrs by gamma counter; type: ADME, organism-based; conditions: in vivo
[15] = tested on: Stomach; test: Biodistribution in stomach of mouse B16F0 cells implanted C57BL/6J mouse assessed per gram of tissue at 0.4 to 5.5 MBq, iv after 6 hrs by gamma counter; type: ADME, organism-based; conditions: in vivo
[16] = tested on: Stomach; test: Biodistribution in stomach of mouse B16F0 cells implanted C57BL/6J mouse assessed per gram of tissue at 0.4 to 5.5 MBq, iv after 3 hrs by gamma counter; type: ADME, organism-based; conditions: in vivo
[17] = tested on: Stomach; test: Biodistribution in stomach of mouse B16F0 cells implanted C57BL/6J mouse assessed per gram of tissue at 0.4 to 5.5 MBq, iv after 1 hr by gamma counter; type: ADME, organism-based; conditions: in vivo
[18] = tested on: Stomach; test: Biodistribution in stomach of mouse B16F0 cells implanted C57BL/6J mouse assessed per gram of tissue at 0.4 to 5.5 MBq, iv after 0.25 hrs by gamma counter; type: ADME, organism-based; conditions: in vivo
[19] = tested on: Thyroid gland; test: Biodistribution in thyroid of mouse B16F0 cells implanted C57BL/6J mouse assessed per gram of tissue at 0.4 to 5.5 MBq, iv after 6 hrs by gamma counter; type: ADME, organism-based; conditions: in vivo
[20] = tested on: Thyroid gland; test: Biodistribution in thyroid of mouse B16F0 cells implanted C57BL/6J mouse assessed per gram of tissue at 0.4 to 5.5 MBq, iv after 3 hrs by gamma counter; type: ADME, organism-based; conditions: in vivo
[21] = tested on: Thyroid gland; test: Biodistribution in thyroid of mouse B16F0 cells implanted C57BL/6J mouse assessed per gram of tissue at 0.4 to 5.5 MBq, iv after 1 hr by gamma counter; type: ADME, organism-based; conditions: in vivo
[22] = tested on: Thyroid gland; test: Biodistribution in thyroid of mouse B16F0 cells implanted C57BL/6J mouse assessed per gram of tissue at 0.4 to 5.5 MBq, iv after 0.25 hrs by gamma counter; type: ADME, organism-based; conditions: in vivo
[23] = tested on: Spleen; test: Biodistribution in spleen of mouse B16F0 cells implanted C57BL/6J mouse assessed per gram of tissue at 0.4 to 5.5 MBq, iv after 6 hrs by gamma counter; type: ADME, organism-based; conditions: in vivo
[24] = tested on: Spleen; test: Biodistribution in spleen of mouse B16F0 cells implanted C57BL/6J mouse assessed per gram of tissue at 0.4 to 5.5 MBq, iv after 3 hrs by gamma counter; type: ADME, organism-based; conditions: in vivo
[25] = tested on: Spleen; test: Biodistribution in spleen of mouse B16F0 cells implanted C57BL/6J mouse assessed per gram of tissue at 0.4 to 5.5 MBq, iv after 1 hr by gamma counter; type: ADME, organism-based; conditions: in vivo
[26] = tested on: Spleen; test: Biodistribution in spleen of mouse B16F0 cells implanted C57BL/6J mouse assessed per gram of tissue at 0.4 to 5.5 MBq, iv after 0.25 hrs by gamma counter; type: ADME, organism-based; conditions: in vivo
[27] = tested on: Lung; test: Biodistribution in lung of mouse B16F0 cells implanted C57BL/6J mouse assessed per gram of tissue at 0.4 to 5.5 MBq, iv after 6 hrs by gamma counter; type: ADME, organism-based; conditions: in vivo
[28] = tested on: Lung; test: Biodistribution in lung of mouse B16F0 cells implanted C57BL/6J mouse assessed per gram of tissue at 0.4 to 5.5 MBq, iv after 3 hrs by gamma counter; type: ADME, organism-based; conditions: in vivo
[29] = tested on: Lung; test: Biodistribution in lung of mouse B16F0 cells implanted C57BL/6J mouse assessed per gram of tissue at 0.4 to 5.5 MBq, iv after 1 hr by gamma counter; type: ADME, organism-based; conditions: in vivo
[30] = tested on: Lung; test: Biodistribution in lung of mouse B16F0 cells implanted C57BL/6J mouse assessed per gram of tissue at 0.4 to 5.5 MBq, iv after 0.25 hrs by gamma counter; type: ADME, organism-based; conditions: in vivo
[31] = Biodistribution in eye of mouse B16F0 cells implanted C57BL/6J mouse assessed per gram of tissue at 0.4 to 5.5 MBq, iv after 6 hrs by gamma counter; type: ADME, organism-based; conditions: in vivo
[32] = Biodistribution in eye of mouse B16F0 cells implanted C57BL/6J mouse assessed per gram of tissue at 0.4 to 5.5 MBq, iv after 3 hrs by gamma counter; type: ADME, organism-based; conditions: in vivo
[33] = Biodistribution in eye of mouse B16F0 cells implanted C57BL/6J mouse assessed per gram of tissue at 0.4 to 5.5 MBq, iv after 1 hr by gamma counter; type: ADME, organism-based; conditions: in vivo

## CCN(CC)CCNC(=O)c1cccnc1[18F]
[1]
  Drug uptake: 36.7%
[2]
  Drug uptake: 4.8%
[3]
  Drug uptake: 17.3%
[4]
  Drug uptake: 14.6%
[5]
  Drug uptake: 10.6%
[6]
  logD: 0.94
[7]
  Drug uptake: 5.6%
[8]
  Drug uptake: 4.6%
[9]
  Drug uptake: 3.4%
[10]
  Drug uptake: 4.8%
[11]
  Drug uptake: 3.6%
[12]
  Drug uptake: 7.1%
[13]
  Drug uptake: 7.1%
[14]
  Drug uptake: 7.8%
[15]
  Drug uptake: 0.7%
[16]
  Drug uptake: 1.9%
[17]
  Drug uptake: 6.8%
[18]
  Drug uptake: 14.7%
[19]
  Drug uptake: 3.2%
[20]
  Drug uptake: 2.1%
[21]
  Drug uptake: 2.2%
[22]
  Drug uptake: 4.5%
[23]
  Drug uptake: 0.5%
[24]
  Drug uptake: 2.5%
[25]
  Drug uptake: 9.2%
[26]
  Drug uptake: 11.8%
[27]
  Drug uptake: 0.2%
[28]
  Drug uptake: 0.35%
[29]
  Drug uptake: 1.5%
[30]
  Drug uptake: 5%
[31]
  Drug uptake: 27.4%
[32]
  Drug uptake: 36.3%
[33]
  Drug uptake: 38%

## CCCCN(C)CCCCNC(=O)c1ccc([18F])nc1
[1]
  Drug uptake: 11.3%
[2]
  Drug uptake: 5.3%
[3]
  Drug uptake: 5.3%
[4]
  Drug uptake: 4.8%
[5]
  Drug uptake: 4%
[6]
  logD: 1.52
[7]
  Drug uptake: 1%
[8]
  Drug uptake: 1.4%
[9]
  Drug uptake: 2%
[10]
  Drug uptake: 3.89%
[11]
  Drug uptake: 3.1%
[12]
  Drug uptake: 4.2%
[13]
  Drug uptake: 5.8%
[14]
  Drug uptake: 8.2%
[15]
  Drug uptake: 1.8%
[16]
  Drug uptake: 2.4%
[17]
  Drug uptake: 3.3%
[18]
  Drug uptake: 8.5%
[19]
  Drug uptake: 2%
[20]
  Drug uptake: 2.9%
[21]
  Drug uptake: 5.4%
[22]
  Drug uptake: 10.2%
[23]
  Drug uptake: 4.1%
[24]
  Drug uptake: 5.3%
[25]
  Drug uptake: 7.4%
[26]
  Drug uptake: 11.2%
[27]
  Drug uptake: 2.2%
[28]
  Drug uptake: 3.1%
[29]
  Drug uptake: 4.5%
[30]
  Drug uptake: 12.1%
[31]
  Drug uptake: 15.8%
[32]
  Drug uptake: 14.3%
[33]
  Drug uptake: 12.7%

## CCN(CC)CCNC(=O)c1ccnc([18F])c1
[1]
  Drug uptake: 17.3%
[2]
  Drug uptake: 7.2%
[3]
  Drug uptake: 8.8%
[4]
  Drug uptake: 12.2%
[5]
  Drug uptake: 7%
[6]
  logD: 1.22
[7]
  Drug uptake: 0.43%
[8]
  Drug uptake: 0.77%
[9]
  Drug uptake: 1.5%
[10]
  Drug uptake: 4%
[11]
  Drug uptake: 0.23%
[12]
  Drug uptake: 0.72%
[13]
  Drug uptake: 2.9%
[14]
  Drug uptake: 7%
[15]
  Drug uptake: 0.3%
[16]
  Drug uptake: 0.82%
[17]
  Drug uptake: 5.3%
[18]
  Drug uptake: 13.2%
[19]
  Drug uptake: 1%
[20]
  Drug uptake: 1.5%
[21]
  Drug uptake: 2.2%
[22]
  Drug uptake: 4.8%
[23]
  Drug uptake: 1.3%
[24]
  Drug uptake: 2.3%
[25]
  Drug uptake: 3.2%
[26]
  Drug uptake: 10.3%
[27]
  Drug uptake: 0.14%
[28]
  Drug uptake: 0.37%
[29]
  Drug uptake: 1.8%
[30]
  Drug uptake: 5.7%
[31]
  Drug uptake: 16.5%
[32]
  Drug uptake: 18.8%
[33]
  Drug uptake: 23.7%
